The source of these data is ChEMBL document CHEMBL1201862, “PubChem BioAssay data set” (2004).

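Assay format: 96-well plates, 48-hour exposure. The concentration for 50% growth inhibition is given as GI50.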 Calls of active or inactive are those of the source. Rule as the data show it: active = GI50 up to about 1.1 µM and inactive = higher.

Test systems include UO-31; OVCAR-8; LOX IMVI; MOLT-4; SK-OV-3; NCI-H226; KM12; UACC-257; SNB-19; OVCAR-3; ACHN; MCF7; SF-539; NCI-H522; OVCAR-4; CAKI-1; Malme-3M; SN12C; BT-549; HCT-15.
Common to all, as to test: NCI-60 cell line screen, 48 h

Regarding `CCOC(=O)CCC(NC(=O)c1ccc(OCc2nc3ccccc3n3cccc23)cc1)C(=O)OCC` (stereo not given), the GI50 in the assay with UO-31 was > 100 µM (inactive); in the assay with OVCAR-8, 33.5 µM (inactive); with LOX IMVI, 42.8 µM (inactive); in the assay on MOLT-4 it was 1.65 µM (inactive); with SK-OV-3, > 100 µM (inactive); with NCI-H226, > 100 µM (inactive). The GI50 was 4.83 µM (inactive) in the assay on KM12; 87.5 µM (inactive) with UACC-257; 55.5 µM (inactive) with SNB-19; 63.7 µM (inactive) with OVCAR-3; 54.5 µM (inactive) in the assay on ACHN; 39.2 µM (inactive) in the assay on MCF7. The GI50 is 46.8 µM (inactive) with SF-539; 6.59 µM (inactive) with NCI-H522; 59.7 µM (inactive) in the assay with OVCAR-4; > 100 µM (inactive) in the assay on CAKI-1; > 100 µM (inactive) in the assay with Malme-3M; > 100 µM (inactive) with SN12C. In addition, the GI50 is 71.9 µM (inactive) in the assay on BT-549 and 50.6 µM in the assay on HCT-15.

Consider `Oc1cccc2c1[nH]c1c(C3=C[C@@]4(O)CC/C=C\CCCCN5CC[C@@H]3[C@]3(CC6/C=C\CCCCN6[C@H]34)C5)nccc12` (stereo not given in full), for which the GI50 in the assay on UO-31 was 1.44 µM (inactive); in the assay on OVCAR-8, 1.15 µM (inactive); with LOX IMVI it was 0.736 µM (active); with MOLT-4, 0.64 µM (active); in the assay on SK-OV-3, 1.94 µM (inactive); with NCI-H226 it was 2.21 µM (inactive). Moreover, the GI50 with KM12 is 1.55 µM (inactive); in the assay with UACC-257, 1.68 µM (inactive); with SNB-19 it was 2.69 µM (inactive); in the assay on OVCAR-3, 0.893 µM (active); in the assay with ACHN, 1.1 µM (active); in the assay with MCF7 it was 0.7 µM (active). Also, the GI50 in the assay on SF-539 was 1.71 µM (inactive); with NCI-H522, 1.01 µM (active); with OVCAR-4, 0.679 µM (active); with CAKI-1 it was 1.67 µM (inactive); in the assay on Malme-3M it was 1.6 µM (inactive); in the assay with SN12C, 0.891 µM (active). Also, the GI50 is 1.81 µM (inactive) with BT-549 and 0.718 µM in the assay with HCT-15.

Turning to `COc1ccc(-c2c(-c3ccccc3)c(C)c3ccccn23)cc1`, the GI50 in the assay on UO-31 is > 100 µM (inactive); in the assay with OVCAR-8 it was > 100 µM (inactive); in the assay with LOX IMVI it was 83.6 µM (inactive); with MOLT-4 it was 59.6 µM (inactive); in the assay with SK-OV-3 it was > 100 µM (inactive); in the assay on NCI-H226, > 100 µM (inactive). The GI50 in the assay on KM12 was 26.3 µM (inactive); in the assay on UACC-257, 49.9 µM (inactive); in the assay with SNB-19, > 100 µM (inactive); with OVCAR-3, > 100 µM (inactive); in the assay with ACHN, > 100 µM (inactive); with MCF7 it was 57.7 µM (inactive). Further, the GI50 with SF-539 is > 100 µM (inactive); in the assay with NCI-H522 it was 57.7 µM (inactive); in the assay on OVCAR-4, > 100 µM (inactive); with CAKI-1, > 100 µM (inactive); in the assay on Malme-3M it was 95.9 µM (inactive); with SN12C, > 100 µM (inactive). Moreover, the GI50 is > 100 µM (inactive) in the assay with BT-549 and 56.9 µM in the assay on HCT-15.

As to `CCOC(=O)c1nc2cc(Cl)ccc2[nH]c1=O`, the GI50 in the assay on UO-31, with OVCAR-8, in the assay with LOX IMVI, in the assay on MOLT-4, in the assay with SK-OV-3 and with NCI-H226 was > 100 µM (inactive) throughout. Further, the GI50 with KM12, in the assay on UACC-257, in the assay with SNB-19, in the assay with OVCAR-3, in the assay with ACHN and in the assay with MCF7 was > 100 µM (inactive) in each case. The GI50 in the assay with SF-539, in the assay on NCI-H522, in the assay with OVCAR-4, in the assay with CAKI-1, in the assay on Malme-3M and in the assay with SN12C was > 100 µM (inactive) each time. Further, the figures for the GI50 in the assay with BT-549 and in the assay with HCT-15 were > 100 µM (inactive) and over 100 µM, respectively.
